Experiment [1] has as its system N. gonorrhoeae ATCC 49226. The experiment in a line: Liquid broth MIC in Fastidious broth. It counts as cell-based. The settings on record: Neisseria gonorrhoeae, ATCC49226; N. gonorrhoeae strain ATCC 49226; Fastidious broth; read-out: Minimum Inhibitory Concentration, N. gonorrhoeae ATCC 49226. An outline of the steps:
(§1)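 Colonies were swabbed from chocolate agar after 24 h growth and standardised by optical density at 600 nm. Compounds were serially diluted twofold in Fastidious broth, and bacteria added to give 5×10^5 CFU/mL. After about 24 h at 36 °C in 5% CO2, the lowest concentration allowing under 10% growth was taken as MIC.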

The test system of a further experiment is N. gonorrhoeae WHO Z. As to the kind of experiment: Liquid broth MIC in Fastidious broth. The settings on record: Neisseria gonorrhoeae, read-out: Minimum Inhibitory Concentration, N. gonorrhoeae WHO Z. It is filed as cell-based. Summed up: (§2)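 Mosaic-PBP2 strains grown 24 h on chocolate agar (36 °C, 5% CO2), then direct-suspended in saline and OD600-adjusted. Twofold compound dilutions in Fastidious broth inoculated at 5×10^5 CFU/mL and incubated ~24 h at 36 °C, 5% CO2. MIC read visually as lowest concentration with <10% growth versus full-growth wells.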

The next experiment deals with N. gonorrhoeae WHO G. As to the kind of experiment: Liquid broth MIC in Fastidious broth. It is filed as cell-based. The settings on record: Neisseria gonorrhoeae; N. gonorrhoeae strain WHO G; Fastidious broth; read-out: Minimum Inhibitory Concentration, N. gonorrhoeae WHO G. An outline of the steps:
as §1

Another experiment relates to N. gonorrhoeae FA1090. The experiment in a line: Liquid broth MIC in Fastidious broth. It counts as cell-based. The note with it: Neisseria gonorrhoeae; N. gonorrhoeae strain FA1090; Fastidious broth; read-out: Minimum Inhibitory Concentration, N. gonorrhoeae FA1090. An outline of the steps:
as §1

The subject of a further experiment is N. gonorrhoeae WHO K. As to the kind of experiment: Liquid broth MIC in Fastidious broth. It is filed as cell-based. The note with it: Neisseria gonorrhoeae, read-out: Minimum Inhibitory Concentration, N. gonorrhoeae WHO K. Summed up:
as §2

Another experiment deals with N. gonorrhoeae WHO Q. The experiment in a line: Liquid broth MIC in Fastidious broth. It counts as cell-based. The note with it: Neisseria gonorrhoeae, read-out: Minimum Inhibitory Concentration, N. gonorrhoeae WHO Q. An outline of the steps:
as §2

The subject of a further experiment is N. gonorrhoeae WHO L. The experiment in a line: Liquid broth MIC in Fastidious broth. It counts as cell-based. The note with it: Neisseria gonorrhoeae; N. gonorrhoeae strain WHO L; Fastidious broth; read-out: Minimum Inhibitory Concentration, N. gonorrhoeae WHO L. An outline of the steps:
as §1

The next experiment has as its system N. gonorrhoeae H041. The experiment in a line: Liquid broth MIC in Fastidious broth. It counts as cell-based. The settings on record: Neisseria gonorrhoeae, H041, read-out: Minimum Inhibitory Concentration, N. gonorrhoeae H041. An outline of the steps:
as §2

In another experiment the target is T1, E. coli K12 PBP3 (Escherichia coli, UniProt P0AD68).
T1 construct: made in house
The experiment in a line: biochemical. It is filed as binding. An outline of the steps: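 Fluorescence polarization (ex 490/em 520 nm) competition of inhibitors against Bocillin-FL at 0.1 μM, read up to 60 min. Final PBP levels: E. coli PBP3 1.5 μM; A. baumannii PBP2 2.5 μM, PBP3 0.2 μM in Tris pH 8.0/NaCl/glycerol/Tween 20; N. gonorrhoeae PBP2 […] in Hepes pH 8.0/NaCl/glycerol. EC50 = concentration halving PBP-bound Bocillin-FL.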

Results on eight compounds are retold here after patent publication US20230114728A1 (Venatorx Pharmaceuticals, Inc., priority 2019, published 2023).

In brackets after ≈: the same amount, converted by molar mass. Bounds are passed on as bounds.

T1 sequence (P0AD68 1-577): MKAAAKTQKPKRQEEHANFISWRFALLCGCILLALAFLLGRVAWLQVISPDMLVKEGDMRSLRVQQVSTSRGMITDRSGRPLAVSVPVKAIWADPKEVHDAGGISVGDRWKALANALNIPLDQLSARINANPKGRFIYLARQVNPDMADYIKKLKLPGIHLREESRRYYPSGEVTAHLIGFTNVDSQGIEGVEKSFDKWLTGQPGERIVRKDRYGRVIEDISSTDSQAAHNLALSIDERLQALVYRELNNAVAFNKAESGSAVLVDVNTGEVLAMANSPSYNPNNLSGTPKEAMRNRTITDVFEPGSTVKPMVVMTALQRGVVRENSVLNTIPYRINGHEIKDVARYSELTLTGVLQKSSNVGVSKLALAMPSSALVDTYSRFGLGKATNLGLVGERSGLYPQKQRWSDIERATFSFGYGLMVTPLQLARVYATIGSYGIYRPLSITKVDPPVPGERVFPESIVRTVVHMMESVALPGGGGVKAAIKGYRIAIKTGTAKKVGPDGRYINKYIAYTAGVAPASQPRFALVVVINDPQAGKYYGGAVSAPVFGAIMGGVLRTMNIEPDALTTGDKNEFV

As usually defined, the EC50 is the concentration at which the effect is half-maximal. A low value points to higher potency in that assay. On to `CCN1CCN(C(=O)N[C@H](C(=O)N[C@H]2Cc3cccc(C(=O)O)c3OB2O)c2ccc(C(=O)O)cc2)C(=O)C1=O` (single isomer, unassigned) [Example 123], for which the MIC in experiment [1] was 4 to 8 µg/mL (≈ 7.24 to 14.5 µM); with N. gonorrhoeae WHO Z, 1 to 2 µg/mL (≈ 1.81 to 3.62 µM); in the experiment on N. gonorrhoeae WHO G, 1 to 2 µg/mL (≈ 1.81 to 3.62 µM); in the experiment on N. gonorrhoeae FA1090 it was 0.25 to 0.5 µg/mL (≈ 0.453 to 0.905 µM); with N. gonorrhoeae WHO K, 4 to 8 µg/mL (≈ 7.24 to 14.5 µM); with N. gonorrhoeae WHO Q, 4 to 8 µg/mL (≈ 7.24 to 14.5 µM). Further, the MIC with N. gonorrhoeae WHO L and with N. gonorrhoeae H041 was 16 to 32 µg/mL (≈ 29 to 57.9 µM) in each case. Further, the EC50 at E. coli K12 PBP3 was under 30 µM.
With `CCN1CCN(C(=O)N[C@@H](C(=O)N[C@H]2Cc3cccc(C(=O)O)c3OB2O)c2ccc(C(=O)O)cc2)C(=O)C1=O` (single isomer, unassigned) [Example 124], the MIC in experiment [1] was 1 to 2 µg/mL (≈ 1.81 to 3.62 µM); with N. gonorrhoeae WHO Z, 1 to 2 µg/mL (≈ 1.81 to 3.62 µM); in the experiment with N. gonorrhoeae WHO G, 0.25 to 0.5 µg/mL (≈ 0.453 to 0.905 µM); with N. gonorrhoeae FA1090, under 0.125 µg/mL; with N. gonorrhoeae WHO K it was 4 to 8 µg/mL (≈ 7.24 to 14.5 µM); in the experiment with N. gonorrhoeae WHO Q it was 1 to 2 µg/mL (≈ 1.81 to 3.62 µM). The MIC with N. gonorrhoeae WHO L and with N. gonorrhoeae H041 was 4 to 8 µg/mL (≈ 7.24 to 14.5 µM) each time. The compound further had a concentration giving a half-maximal response (EC50) at E. coli K12 PBP3 of under 30 µM.
With `CCN1CCN(C(=O)N[C@H](C(=O)N[C@H]2Cc3ccc(F)c(C(=O)O)c3OB2O)c2c(F)cc(O)c(O)c2Cl)C(=O)C1=O` (single isomer, unassigned) [Example 125], the MIC (in experiment [1]; in the experiment on N. gonorrhoeae WHO Z; with N. gonorrhoeae WHO G; in the experiment on N. gonorrhoeae FA1090; with N. gonorrhoeae WHO K; in the experiment on N. gonorrhoeae WHO Q) was over 64 µg/mL throughout. Further, the MIC in the experiment with N. gonorrhoeae WHO L and with N. gonorrhoeae H041 was over 64 µg/mL each time. On E. coli K12 PBP3, this compound yielded an EC50 of over 500 µM.
Turning to `O=C(O)c1cccc2c1OB(O)[C@@H](NC(=O)[C@H](NC(=O)N1CCN(CCF)C(=O)C1=O)c1c(F)cc(O)cc1F)C2` (single isomer, unassigned) [Example 126], the MIC in [1] was 4 to 8 µg/mL (≈ 6.92 to 13.8 µM); in the experiment with N. gonorrhoeae WHO Z, 4 to 8 µg/mL (≈ 6.92 to 13.8 µM); with N. gonorrhoeae WHO G, 1 to 2 µg/mL (≈ 1.73 to 3.46 µM); with N. gonorrhoeae FA1090, under 0.125 µg/mL; in the experiment with N. gonorrhoeae WHO K, 16 to 32 µg/mL (≈ 27.7 to 55.3 µM); in the experiment on N. gonorrhoeae WHO Q, 4 to 8 µg/mL (≈ 6.92 to 13.8 µM). The MIC in the experiment with N. gonorrhoeae WHO L and in the experiment with N. gonorrhoeae H041 was 16 to 32 µg/mL (≈ 27.7 to 55.3 µM) throughout. The compound also came in with an EC50 on E. coli K12 PBP3 of under 30 µM.
Take `NCCN1CCN(C(=O)N[C@@H](C(=O)N[C@H]2Cc3ccc(F)c(C(=O)O)c3OB2O)c2c(F)cc(O)cc2F)C(=O)C1=O` (single isomer, unassigned) [Example 127]: the MIC was 16 to 32 µg/mL (≈ 27 to 53.9 µM) in experiment [1]; over 64 µg/mL in the experiment with N. gonorrhoeae WHO Z; 16 to 32 µg/mL (≈ 27 to 53.9 µM) in the experiment with N. gonorrhoeae WHO G; 4 to 8 µg/mL (≈ 6.74 to 13.5 µM) with N. gonorrhoeae FA1090; over 64 µg/mL with N. gonorrhoeae WHO K; over 64 µg/mL in the experiment with N. gonorrhoeae WHO Q. The MIC in the experiment with N. gonorrhoeae WHO L and in the experiment with N. gonorrhoeae H041 was over 64 µg/mL each time. The same compound displayed an EC50 at E. coli K12 PBP3 of under 30 µM.
As for `NCCN1CCN(C(=O)N[C@H](C(=O)N[C@H]2Cc3ccc(F)c(C(=O)O)c3OB2O)c2c(F)cc(O)cc2F)C(=O)C1=O` (single isomer, unassigned) [Example 128], the MIC is over 64 µg/mL in [1]; over 64 µg/mL with N. gonorrhoeae WHO Z; over 64 µg/mL with N. gonorrhoeae WHO G; 16 to 32 µg/mL (≈ 27 to 53.9 µM) with N. gonorrhoeae FA1090; over 64 µg/mL in the experiment with N. gonorrhoeae WHO K; over 64 µg/mL in the experiment on N. gonorrhoeae WHO Q. In addition, the MIC in the experiment with N. gonorrhoeae WHO L and in the experiment with N. gonorrhoeae H041 was over 64 µg/mL throughout. In addition, at E. coli K12 PBP3, the EC50 was in the range of 30 to 500 µM.
As to `NC1(CN2CCN(C(=O)N[C@@H](C(=O)N[C@H]3Cc4ccc(F)c(C(=O)O)c4OB3O)c3cc(F)c(O)c(O)c3Cl)C(=O)C2=O)CC1` (single isomer, unassigned) [Example 133], the MIC in experiment [1] is over 64 µg/mL; in the experiment on N. gonorrhoeae WHO Z it was over 64 µg/mL; in the experiment on N. gonorrhoeae WHO G, 16 to 32 µg/mL (≈ 24.5 to 49.1 µM); in the experiment with N. gonorrhoeae FA1090, 16 to 32 µg/mL (≈ 24.5 to 49.1 µM); with N. gonorrhoeae WHO K, over 64 µg/mL; in the experiment with N. gonorrhoeae WHO Q, over 64 µg/mL. Besides, the MIC with N. gonorrhoeae WHO L and in the experiment on N. gonorrhoeae H041 was over 64 µg/mL throughout. On E. coli K12 PBP3, this compound returned an EC50 of 30 to 500 µM.
As for `NC1(CN2CCN(C(=O)N[C@@H](C(=O)N[C@H]3Cc4ccc(F)c(C(=O)O)c4OB3O)c3c(F)cc(O)c(O)c3Cl)C(=O)C2=O)CC1` (single isomer, unassigned) [Example 134], the MIC is over 64 µg/mL in experiment [1]; over 64 µg/mL in the experiment on N. gonorrhoeae WHO Z; over 64 µg/mL with N. gonorrhoeae WHO G; 16 to 32 µg/mL (≈ 24.5 to 49.1 µM) in the experiment on N. gonorrhoeae FA1090; over 64 µg/mL in the experiment with N. gonorrhoeae WHO K; over 64 µg/mL with N. gonorrhoeae WHO Q. Besides, the MIC with N. gonorrhoeae WHO L and in the experiment with N. gonorrhoeae H041 was over 64 µg/mL in each case. Also, at E. coli K12 PBP3, the EC50 fell in the range of 30 to 500 µM.
